Results from ChEMBL document CHEMBL4184248, “A multicomponent approach in the discovery of indoleamine 2,3-dioxygenase 1 inhibitors: Synthesis, biological investigation and docking studies” (Bioorg Med Chem Lett, 2018).
pIC50: −log10 of the molar value.

Key:
A-375 = assay: Cytotoxicity in human A375 cells assessed as cell viability at 10 uM incubated for 48 hrs by MTT assay; type: functional; settings: A-375, 48 h, read-out: Activity
[1] = target: T1, Indoleamine 2,3-dioxygenase 1 (Homo sapiens, UniProt P14902); assay: Inhibition of human recombinant IDO1 assessed as reduction in kynurenine production at 1 uM using L-tryptophan incubated for 60 mins by Ehrlich's reagent based assay
Target sequence in this assay (P14902 whole entry, looked up): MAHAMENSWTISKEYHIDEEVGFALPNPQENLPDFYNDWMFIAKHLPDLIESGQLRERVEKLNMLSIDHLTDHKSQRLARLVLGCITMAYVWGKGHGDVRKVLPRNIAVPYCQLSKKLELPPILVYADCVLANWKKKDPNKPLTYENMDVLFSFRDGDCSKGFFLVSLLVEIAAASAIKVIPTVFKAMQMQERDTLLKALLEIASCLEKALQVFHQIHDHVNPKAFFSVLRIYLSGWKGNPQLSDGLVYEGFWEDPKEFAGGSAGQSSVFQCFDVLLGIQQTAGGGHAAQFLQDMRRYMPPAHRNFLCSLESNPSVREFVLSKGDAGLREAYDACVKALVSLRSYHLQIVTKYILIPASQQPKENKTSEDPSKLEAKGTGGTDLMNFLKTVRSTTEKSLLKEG

[2] = target: T1, Indoleamine 2,3-dioxygenase 1; assay: Inhibition of human recombinant IDO1 assessed as reduction in kynurenine production using L-tryptophan incubated for 60 mins by Ehrlich's reagent based assay
Target sequence in this assay (P14902 whole entry): as the sequence (P14902 whole entry, looked up) above

SMILES | viability at 10 µM (A-375) [%] | inhibition [1] [%] | pIC50 [2]
COc1ccc(C(=O)N(C)CC(=O)NCc2cnc3scc(-c4ccc(Br)cc4)n23)cc1 | 82 | 49 | –
CC(=O)N(C)CC(=O)NCc1cnc2scc(-c3ccc(Br)cc3)n12 | 98 | 21 | –
CN(CC(=O)NCc1cnc2scc(-c3ccc(Br)cc3)n12)C(=O)Cc1ccc(C#N)cc1 | 92 | 18 | –
N#Cc1ccc(CC(=O)OCC(=O)NCc2cnc3scc(-c4ccc(Br)cc4)n23)cc1 | 100 | 69 | 6.47
O=C(COC(=O)Cc1cccc(Cl)c1)NCc1cnc2scc(-c3ccc(Br)cc3)n12 | 100 | 39 | –
O=C(COC(=O)Cc1cccc([N+](=O)[O-])c1)NCc1cnc2scc(-c3ccc(Br)cc3)n12 | 100 | 50 | –
N[C@H](C(=O)NCC(=O)NCc1cnc2scc(-c3ccc(Br)cc3)n12)c1ccc(O)cc1 | 100 | 0 | –
O=C(COC(=O)Cc1ccc([N+](=O)[O-])cc1)NCc1cnc2scc(-c3ccc(Br)cc3)n12 | 100 | 39 | –
CN(CC(=O)NCc1cnc2scc(-c3ccc(Br)cc3)n12)C(=O)Cc1ccccc1O | 88 | 0 | –
O=C(COC(=O)Cc1ccccc1)NCc1cnc2scc(-c3ccc(Br)cc3)n12 | 98 | 72 | 6.24
O=C(COC(=O)Cc1ccc(O)cc1)NCc1cnc2scc(-c3ccc(Br)cc3)n12 | 100 | 89 | 6.70
O=C(COC(=O)Cc1ccc(Cl)cc1)NCc1cnc2scc(-c3ccc(Br)cc3)n12 | 100 | 32 | –
CN(CC(=O)NCc1cnc2scc(-c3ccc(Br)cc3)n12)C(=O)c1ccccc1 | 96 | 50 | –
N#Cc1ccc(NC(=O)NCc2cnc3scc(-c4ccc(Br)cc4)n23)cc1 | 99 | 97 | 7.10
NS(=O)(=O)NCCNc1nonc1/C(=N/O)Nc1ccc(F)c(Br)c1 [EPACADOSTAT] | 100 | – | –
O=C(COC(=O)Cc1cccc(O)c1)NCc1cnc2scc(-c3ccc(Br)cc3)n12 | 100 | 59 | –
O=C(CO)NCc1cnc2scc(-c3ccc(Br)cc3)n12 | 97 | 48 | –
O=C(CNC(=O)Cc1ccccc1)NCc1cnc2scc(-c3ccc(Br)cc3)n12 | 100 | 46 | –
Cn1cc(C[C@H](N)C(=O)O)c2ccccc21 [(L)-1-METHYLTRYPTOPHAN] | 100 | – | –
CN(CC(=O)NCc1cnc2scc(-c3ccc(Br)cc3)n12)C(=O)Cc1cccc(C#N)c1 | 90 | 0 | –

SMILES | viability at 10 µM (A-375) [%] | inhibition [1] [%] | pIC50 [2]
CN(CC(=O)NCc1cnc2scc(-c3ccc(Br)cc3)n12)C(=O)Cc1cccc(Cl)c1 | 83 | 39 | –
CN(CC(=O)NCc1cnc2scc(-c3ccc(Br)cc3)n12)C(=O)Cc1cccc([N+](=O)[O-])c1 | 93 | 65 | 6.20
O=C(COC(=O)Cc1ccccc1Cl)NCc1cnc2scc(-c3ccc(Br)cc3)n12 | 100 | 46 | –
CN(CC(=O)NCc1cnc2scc(-c3ccc(Br)cc3)n12)C(=O)Cc1ccc([N+](=O)[O-])cc1 | 100 | 66 | 6.09
O=C(COC(=O)Cc1ccc(O)c(O)c1)NCc1cnc2scc(-c3ccc(Br)cc3)n12 | 99 | 40 | –
COc1cccc(C(=O)N(C)CC(=O)NCc2cnc3scc(-c4ccc(Br)cc4)n23)c1 | 98 | 48 | –
CN(CC(=O)NCc1cnc2scc(-c3ccc(Br)cc3)n12)C(=O)c1ccc(C#N)cc1 | 87 | 47 | –
N[C@H](C(=O)NCC(=O)NCc1cnc2scc(-c3ccc(Br)cc3)n12)c1ccccc1 | 96 | 10 | –
O=C(COC(=O)Cc1ccccc1O)NCc1cnc2scc(-c3ccc(Br)cc3)n12 | 100 | 73 | 6.06
CN(CC(=O)NCc1cnc2scc(-c3ccc(Br)cc3)n12)C(=O)Cc1ccc(Cl)cc1 | 64 | 51 | –
CN(CC(=O)NCc1cnc2scc(-c3ccc(Br)cc3)n12)C(=O)Cc1cccc(O)c1 | 100 | 63 | 6.35
N#Cc1cccc(CC(=O)OCC(=O)NCc2cnc3scc(-c4ccc(Br)cc4)n23)c1 | 97 | 29 | –
CN(CC(=O)NCc1cnc2scc(-c3ccc(Br)cc3)n12)C(=O)Cc1ccccc1[N+](=O)[O-] | 92 | 67 | 6.14
O=C(COC(=O)Cc1ccccc1[N+](=O)[O-])NCc1cnc2scc(-c3ccc(Br)cc3)n12 | 100 | 41 | –
CN(CC(=O)NCc1cnc2scc(-c3ccc(Br)cc3)n12)C(=O)Cc1ccc(O)cc1 | 91 | 55 | –
CN(CC(=O)NCc1cnc2scc(-c3ccc(Br)cc3)n12)C(=O)Cc1ccccc1 | 100 | 62 | 6.16
CN(CC(=O)NCc1cnc2scc(-c3ccc(Br)cc3)n12)C(=O)Cc1ccc(O)c(O)c1 | 99 | 34 | –
CN(CC(=O)NCc1cnc2scc(-c3ccc(Br)cc3)n12)C(=O)c1ccc([N+](=O)[O-])cc1 | 100 | 45 | –
CN(CC(=O)NCc1cnc2scc(-c3ccc(Br)cc3)n12)C(=O)Cc1ccccc1Cl | 71 | 41 | –
